# Results: patent publication US20260263505A1, “Uses of Compositions Comprising a Prebiotic Component” (Mead Johnson Nutrition Company, priority 2021, published 2026)
# Tested on: male Sprague Dawley rats
# Test: Telemetric sleep/wake recording at baseline and after inescapable tail shock stress, following early life diet (P21-P51)
# Assay type: in vivo, rat
# Conditions: mean ± SEM
# From the text: The aim of this study was to investigate the extent to which early life dietary oligosaccharides and/or polydextrose (PDX+GOS) modulate sleep and protect sleep architecture following stress.
# Timed-pregnant female Sprague Dawley rats were purchased from Charles River Laboratories International, Inc., (Hollister, CA and Canada). Male pups were weaned at postnatal day 21 (P21) and randomised into one of five treatment groups (see Table 6 below). All rats were housed in a temperature-controlled recording room under a 12 hour light: dark cycle with food and water available ad libitum. Environmental conditions were regulated, and room temperature (24±2° C.), humidity (50±20% relative humidity), and lighting were monitored and recorded. Animals were inspected daily.
# All experimenters were blind to type of diet administered to each group. The diets were formulated by Mead Johnson Nutrition (MJN, Evansville IN) based on AlN-93G specifications to be isocaloric and have similar carbohydrate, protein, fat, vitamin and mineral levels. Experimental diets contained 7.0 g/kg galactooligosaccharides (GOS), 7.0 g/kg polydextrose (PDX) and/or 2.2 g/kg sialyllactose (SL). Diets were produced by Envigo (Indianapolis, IN), and ingredients were supplied by: PDX (Danisco, Terre Haute, IN), GOS (Friesland Campina, Zwolle, The Netherlands) and SL (SAL-10; Arla Foods Ingredients, Aarhus, Denmark).
# A total of n=105 male Sprague Dawley rats were used in this study with a subset of animals (n=40) used for sleep/wake analysis. Upon weaning (P21), rats were randomised into one of five treatment groups, based upon diet and exposure to a stressor, as follows:
# The experimental protocol consisted of two phases a diet manipulation phase and a sleep-stressor phase. During the diet manipulation phase, rat weanlings were randomised to either the control diet or one of the three formulated diets. Rats were provided these diets from age P21 to P51, after which all animals were given standard chow. During this diet-manipulation phase, body weights were recorded twice per week and food consumption determined for weekly intervals.
# The second phase of the protocol consisted of telemetric recordings, exposure to stressor, and behavioural assessment. Telemeters were implanted on P64 and undisturbed baseline recordings obtained on P84.
# Rats in groups 2 to 5 were exposed to inescapable shock stress (uncontrollable stress paradigm) on P85 using previously published protocols (Greenwood et al., Behav Brain Res. 2012 Aug. 1; 233(2): 314-321). Briefly, rats were restrained in Plexiglass tubes and received ~100, 5 s tail shocks (1.5 mA) on a […] variable-interval schedule. Stress protocols were conducted during the beginning of the light period. After the end of the stress protocol, rats were returned to their home cages. Home-cage control animals (no stress) remained undisturbed during this period.
# [1] = Dark period (ZT13-24), Baseline
# [2] = Dark period (ZT13-24), Post-stress
# [3] = Light period (ZT5-12), Baseline
# [4] = Light period (ZT5-12), Post-stress
substance,measurement,setting,value
sialyllactose [SL],NREMS bout duration,[1],1.3 ± 0.1 min
same,NREMS bouts,[1],11.9 ± 1.1 number/h
same,NREMS duration,[1],30.1 ± 3.0 % recording time
same,REMS bout duration,[1],0.9 ± 0.1 min
same,REMS bouts,[1],2.8 ± 0.4 number/h
same,REMS duration,[1],6.0 ± 0.9 % recording time
same,Wake bout duration,[1],10.9 ± 2.2 min
same,Wake bouts,[1],8.3 ± 0.6 number/h
same,Wake duration,[1],63.9 ± 3.8 % recording time
same,NREMS bout duration,[2],1.5 ± 0.1 min
same,NREMS bouts,[2],17.7 ± 1.3 number/h
same,NREMS duration,[2],[43.7 ± 1.7**] % recording time
same,REMS bout duration,[2],[1.3 ± 0.1*] min
same,REMS bouts,[2],[5.5 ± 0.5**] number/h
same,REMS duration,[2],[12.3 ± 1.0**] % recording time
same,Wake bout duration,[2],4.1 ± 0.8 min
same,Wake bouts,[2],10.4 ± 1.1 number/h
same,Wake duration,[2],[43.9 ± 2.4**] % recording time
same,NREMS bout duration,[3],1.5 ± 0.1 min
same,NREMS bouts,[3],20.1 ± 1.5 number/h
same,NREMS duration,[3],51.0 ± 3.1 % recording time
same,REMS bout duration,[3],1.2 ± 0.1 min
same,REMS bouts,[3],5.3 ± 0.6 number/h
same,REMS duration,[3],12.6 ± 1.3 % recording time
same,Wake bout duration,[3],3.5 ± 1.1 min
same,Wake bouts,[3],10.1 ± 0.6 number/h
same,Wake duration,[3],36.4 ± 4.2 % recording time
same,NREMS bout duration,[4],2.1 ± 0.1 min
same,NREMS bouts,[4],16.8 ± 1.1 number/h
same,NREMS duration,[4],56.1 ± 2.1 % recording time
same,REMS bout duration,[4],1.6 ± 0.0 min
same,REMS bouts,[4],5.3 ± 0.7 number/h
same,REMS duration,[4],14.4 ± 1.7 % recording time
same,Wake bout duration,[4],3.0 ± 0.7 min
same,Wake bouts,[4],7.8 ± 0.6 number/h
same,Wake duration,[4],29.5 ± 3.5 % recording time
